Here are results for 5 molecules from US7781445B2, “Synthesis of indenoisoquinoliniums and methods of use” (Purdue Research Foundation, priority 2005, dated 2010).

Molecules are shown by their SMILES. Where two headings read alike, the source gives them in different places. A value given as a limit tells only on which side of the number the result lay.

For orientation: GI50 means the concentration giving 50% growth inhibition.

One data set deals with HOP-62. As to the kind of experiment: COMPARE screening (NCI), GI50 in HOP-62. From the text: (§1) This in vitro prescreening system is based on the measurement of anticancer cytotoxicity against human cancer cell line panels consisting of approximately 60 cell lines of major human cancers (including leukemia, and slower growing tumor cells such as lung, colon, breast, skin, kidney, etc.) and is referred hereinafter as “COMPARE” screening.
(§2) COMPARE screening. The compounds described herein were examined for antiproliferative activity against the human cancer cell lines in the National Cancer Institute screen (COMPARE screening), in which the activity of each compound was evaluated with approximately 55 different cancer cell lines of diverse tumor origins. […] Therefore, the MGM value represents an overall assessment of toxicity of the compound across numerous cell lines.

The test system of another data set is HCT-116. As to the kind of experiment: COMPARE screening (NCI), GI50 in HCT-116.
Source text: as §1, §2

Another data set concerns SF-539. As to the kind of experiment: COMPARE screening (NCI), GI50 in SF-539.
Source text: as §1, §2

The test system of another data set is UACC-62. As to the kind of experiment: COMPARE screening (NCI), GI50 in UACC-62.
Source text: as §1, §2

A further data set deals with OVCAR-3. As to the kind of experiment: COMPARE screening (NCI), GI50 in OVCAR-3. To be noted: OVCAR-3, concentration corresponding to 50% growth inhibition.
Source text: as §1, §2

A further data set relates to SN12C. As to the kind of experiment: COMPARE screening (NCI), GI50 in SN12C.
Source text: as §1, §2

The test system of the next data set is DU-145. As to the kind of experiment: COMPARE screening (NCI), GI50 in DU-145.
Source text: as §1, §2

Another data set relates to MDA-MB-435. As to the kind of experiment: COMPARE screening (NCI), GI50 in MDA-MB-435.
Source text: as §1, §2

Another data set relates to SR.
Source text: as §1, §2

Data set [1] relates to all human cancer cell lines successfully tested (approximately 55). As to the kind of experiment: COMPARE screening, mean graph midpoint (MGM). It is filed as cell-based. To be noted: average GI50 over all cell lines tested, values outside 10^-8 to 10^-4 molar taken as the limits, read-out: MGM (mean graph midpoint for growth inhibition); for MGM (mean GI50 across cell lines): Homo sapiens.
Source text: as §1, §2

Another data set has as its target T1, topoisomerase I (Homo sapiens, UniProt P11387).
T1 sequence (P11387 1-765): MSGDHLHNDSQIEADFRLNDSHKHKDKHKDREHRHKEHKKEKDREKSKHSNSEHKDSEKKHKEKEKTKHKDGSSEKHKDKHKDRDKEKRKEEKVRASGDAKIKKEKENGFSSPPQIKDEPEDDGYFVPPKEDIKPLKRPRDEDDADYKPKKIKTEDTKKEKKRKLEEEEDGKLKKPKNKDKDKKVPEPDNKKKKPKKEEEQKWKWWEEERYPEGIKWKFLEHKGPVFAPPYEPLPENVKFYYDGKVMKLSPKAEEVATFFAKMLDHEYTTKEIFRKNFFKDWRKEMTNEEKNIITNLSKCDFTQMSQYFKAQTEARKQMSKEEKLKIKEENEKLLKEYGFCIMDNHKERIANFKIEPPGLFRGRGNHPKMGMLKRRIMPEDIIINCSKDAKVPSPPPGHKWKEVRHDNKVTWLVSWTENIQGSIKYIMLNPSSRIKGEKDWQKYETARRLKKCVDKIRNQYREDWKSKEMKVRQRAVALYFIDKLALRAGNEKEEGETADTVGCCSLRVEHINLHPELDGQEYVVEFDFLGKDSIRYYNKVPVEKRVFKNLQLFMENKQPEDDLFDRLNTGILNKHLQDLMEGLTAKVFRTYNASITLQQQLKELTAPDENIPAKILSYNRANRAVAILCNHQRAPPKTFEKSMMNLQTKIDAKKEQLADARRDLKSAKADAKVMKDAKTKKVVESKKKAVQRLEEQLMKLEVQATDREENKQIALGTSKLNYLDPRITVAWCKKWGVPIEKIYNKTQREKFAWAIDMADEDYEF
Description: Topoisomerase I-mediated DNA cleavage, 3'-end-labeled 161 bp pBluescript SK(-) fragment. It is filed as biochemical. Conditions: tested at concentrations ranging up to 10 μM, semi-quantitative relative to compound A. The protocol:
The assays were carried out at room temperature for 30 min and stopped by adding 0.5% SDS. […] Topoisomerase I was present in all reaction mixtures except for the one corresponding to the first lane.
Induction of DNA cleavage.
Labeling reactions were followed by phenol-chloroform extraction and ethanol precipitation. […] Reactions were terminated by adding 0.5% SDS.
DNA Cleavage Semiquantitative Analysis. […] The rubberband baseline correction was applied with band detection sensitivity set at 90.

[2] abbreviates: Homo sapiens, HOP-62, read-out: Cytotoxicity GI50, lung HOP-62, lung, HOP-62, concentration corresponding to 50% growth inhibition.
Where [3] appears, read: Homo sapiens, HCT-116, read-out: Cytotoxicity GI50, colon HCT-116, colon, HCT-116, concentration corresponding to 50% growth inhibition.
The mark [4] stands for this setting: Homo sapiens, read-out: Cytotoxicity GI50, CNS SF-539.
Where [5] appears, read: Homo sapiens, UACC-62, read-out: Cytotoxicity GI50, melanoma UACC-62, melanoma, UACC-62, concentration corresponding to 50% growth inhibition.
The mark [6] stands for this setting: Homo sapiens, OVCAR-3, read-out: Cytotoxicity GI50, ovarian OVCAR-3, ovarian.
The mark [7] stands for this setting: Homo sapiens, SN12C, read-out: Cytotoxicity GI50, renal SN12C, renal, SN12C, concentration corresponding to 50% growth inhibition.
[8] abbreviates: Homo sapiens, MDA-MB-435, read-out: Cytotoxicity GI50, breast MDA-MB-435, breast, MDA-MB-435, concentration corresponding to 50% growth inhibition.
Setting [9] is: Homo sapiens, DU-145, read-out: Cytotoxicity GI50, prostate DU-145, prostate, DU-145, concentration corresponding to 50% growth inhibition.

Take `COc1cc2c[n+](CCCNC(C)=O)c3c(c2cc1OC)C(=O)c1cc2c(cc1-3)OCO2` [Compound 6ab, 2,3-Dimethoxy-6-(3-N-acetylamino-1-propyl)-8,9-(methylenedioxy)-11-oxo-indeno[1,2-c]isoquinolinium Chloride]: the GI50 in the data set with HOP-62 came out at 1000 nM; with HCT-116, 5.08 µM; in the data set with SF-539, 96.8 nM; in the data set with UACC-62, 3.43 µM; in the data set with OVCAR-3 (read-out: Cytotoxicity GI50, ovarian OVCAR-3, ovarian), 12.2 µM; with SN12C it was 2760 nM. The GI50 in the data set with DU-145 turned out to be 0.907 µM; with MDA-MB-435, 466 nM; in the data set with SR it was 92.9 nM. Moreover, the IC50 in [1] stood at 7.96 µM.
With `Cl.c1c2c(cc3c1OCO3)-c1ncc3cc4c(cc3c1C2)OCO4` [Compound 9bb, 2,3-Methylenedioxy-8,9-methylenedioxy-11H-indeno[1,2-c]isoquinoline Hydrochloride], the GI50 stood at 227 nM with HOP-62 (setting [2]); 0.283 µM in the data set with HCT-116 (setting [3]); 598 nM in the data set on SF-539 (setting [4]); 0.19 µM in the data set with UACC-62 (setting [5]); 0.0232 µM in the data set on OVCAR-3 (setting [6]); 41.4 nM with SN12C (setting [7]). The concentration for 50% growth inhibition (GI50) in the data set on MDA-MB-435 (setting [8]) was < 10 nM. Also, in data set [1], the MGM (mean GI50 across cell lines) came out at 0.272 µM. Besides, the “Top 1 Cleavage” value at topoisomerase I (Table 1) is on record as “++ (++, similar activity as compound A)”.
As to `COc1cc2c(cc1OC)-c1ncc3cc(OC)c(OC)c(OC)c3c1C2.Cl` [Compound 9ca, 1,2,3,8,9-Pentamethoxy-11H-indeno[1,2-c]isoquinoline Hydrochloride], the 50% growth inhibitory concentration (GI50) in the data set with HOP-62 (setting [2]) turned out to be 34800 nM; in the data set on HCT-116 (setting [3]), 31.8 µM; in the data set with SF-539 (setting [4]) it was 14000 nM; with UACC-62 (setting [5]), 7.42 µM; with OVCAR-3 (setting [6]) it was 15.9 µM; in the data set with SN12C (setting [7]), 14400 nM. The GI50 with DU-145 (setting [9]) stood at 21.7 µM; in the data set on MDA-MB-435 (setting [8]), 16200 nM. For the same molecule, the MGM (mean GI50 across cell lines) in data set [1] is 19.1 µM. On topoisomerase I (Table 2), the “Top 1 Cleavage” value is listed as “+ (+, weak activity)”.
On to `COc1cc2c3c(ncc2c(OC)c1OC)-c1c(ccc2c1OCO2)C3.Cl` [Compound 9cb, 2,3,4-Trimethoxy-7,8-methylenedioxy-11H-indeno[1,2-c]isoquinoline Hydrochloride], for which the concentration for 50% growth inhibition (GI50) in the data set on HOP-62 (setting [2]) was found to be 234 nM; in the data set with HCT-116 (setting [3]), 0.0694 µM; with SF-539 (setting [4]) it was 869 nM; in the data set on UACC-62 (setting [5]), 0.439 µM; with OVCAR-3 (setting [6]), 0.403 µM; in the data set with SN12C (setting [7]) it was 602 nM. Besides, the 50% growth inhibitory concentration (GI50) was > 100 µM in the data set on DU-145 (setting [9]) and 178 nM with MDA-MB-435 (setting [8]). Moreover, the MGM (mean GI50 across cell lines) in data set [1] turned out to be 2.01 µM. Moreover, at topoisomerase I (Table 2), the “Top 1 Cleavage” value is recorded as “++ (++, similar activity as compound A)”.
As to `COc1ccc2c(c1OC)-c1ncc3c(OC)ccc(OC)c3c1C2.Cl` [Compound 9da, 1,4,7,8-Tetramethoxy-11H-indeno[1,2-c]isoquinoline Hydrochloride], the GI50 came to 21400 nM with HOP-62 (setting [2]); 17.8 µM with HCT-116 (setting [3]); 14000 nM in the data set with SF-539 (setting [4]); 18 µM with UACC-62 (setting [5]); 15.4 µM in the data set with OVCAR-3 (setting [6]); 14800 nM with SN12C (setting [7]). Also, the 50% growth inhibitory concentration (GI50) stood at 28.1 µM with DU-145 (setting [9]) and 23400 nM with MDA-MB-435 (setting [8]). Also, the MGM (mean GI50 across cell lines) in data set [1] is 18.6 µM. Further, the “Top 1 Cleavage” value on topoisomerase I (Table 2) is 0 (0, no activity).
